Test results as given in patent publication US5120322A, “Method and apparatus for treatment of fibrotic lesions” (Lathrotec, Inc., priority 1990, dated 1992).
Where a name gives a salt, the structure may show the parent alone. Read-outs that look alike come from different tables or passages of the source. Values belong to the compound of their own block, whether it stands above or below them.

Key:
[1] = tested on: scarred and blocked fallopian tubes; assay: Example 2: fallopian tube stenosis-infertility; format: in vivo, human; conditions: BAPN-coated silastic tube stint; four to six week healing phase
Source text: A patient having scarred and blocked fallopian tubes as a result of infection has incisions made in the scar tissue and a BAPN- coated silastic tube stint placed in the fallopian tube after one week and left in place during the healing phase. The stint is continuously maintained in contact with the fresh wound and is changed two or three times during the four to six week healing phase as the lathyrogenic agent leaches off the surface of the silastic stint and is incorporated into the newly healing scar. The newly formed scar takes the shape of the stint.

[2] = tested on: skin and other surrounding tissues; conditions: cited from earlier work
[3] = Decomposition of BAPN in ointment, gels or solutions; format: physicochemical; conditions: decomposition into ammonia, aminonitrile and CO2
[4] = systemic administration, humans; cited from earlier work
collagen crosslinking = conditions: cited from earlier work
[5] = tested on: transection of the membranous urethra; assay: Example 8: urethra-trauma; format: in vivo, human males; conditions: coated silicone catheter; about six weeks
Source text: Following fractured hips, 5-10% of human males suffer transection of the membranous urethra as it leaves the bladder. This transection requires primary anastamosis with catheter stinting, often resulting in severe scar formation and secondary bladder outlet obstruction. Balloon dilation (pressure balloon) to create new wound tissue may be performed or direct surgical resection removes the narrowed scar tissue. After one week, the original bladder catheter is exchanged for a silicone catheter coated with either BAPN-F or another lathyrogenic agent such as D-Penicillamine, which inhibits cross-linking (strong bonding) between scar collagen fibers. The coated catheter is continuously maintained in place and changed once a week for about six weeks during the healing phase.

tracheal injury = assay: Example 10: trachea; format: in vivo, human; conditions: silastic stint coated with 5.0 mM BAPN-F or D-Penicillamine; five or six weeks
Method: The patient suffering tracheal injury either due to a tracheostomy on an emergency basis or secondary to an automobile accident has primary anastomosis of the trachea resulting in a severe scar and impairment of the airway. The scar is excised and an endotracheal silastic stint coated with 5.0 mM BAPN-F or D-Penicillamine is put in place after one week and continuously maintained and changed on a weekly basis for five or six weeks during the healing phase. The lathyrogen is incorporated in the newly formed and healing wound where it allows the newly formed scar to be soft, plastic-like and conform to the diameter of the endotracheal stint.

burns in the esophagus = conditions: dogs, cited from earlier work
[6] = tested on: full thickness dermal scar around the elbow; assay: Example 1: burn scar-elbow; format: in vivo, human; conditions: 5.0 mM BAPN-F and/or 20-25 mM D-penicillamine jelly or BAPN-F gauze (40 mg/100 cm^2); four to six weeks
Method: This restricts use. The hard scar is surgically "released" under general anesthesia by cutting in several places with or without a skin graft. The patient then has a lathyrogen applied and is placed in an elbow dynamic splint. This allows the elbow to be protected and at the same time to fully exercise the joint on a daily basis with or without the supervision of a physical therapist.
A lathyrogen jelly with 5.0 mM of BAPN-F and/or 20-25 mM D-penicillamine or a BAPN-F ]impregnated gauze (40 mg/100 cm^2 of gauze) is continuously applied to the wound during its healing phase beginning 4-8 days after surgical treatment and continued for four to six weeks in combination with physical therapy.

[7] = tested on: peritendinous, perineural adhesions; assay: Clinical effect of topically applied BAPN-F gauze; format: in vivo; conditions: 20-40 mg BAPN-F per 100 cm^2 of gauze, placed wet over the lesions
Source text: In order to obtain long shelf life of BAPN medications the drug should be kept dry and out of contact with water. For this reason administration of BAPN as an ointment, in gels or solutions is rather impractical, as the medication has to be freshly prepared every 6-8 weeks. 6-8 weeks is the time of detection of the first decomposition product of BAPN into ammonia, aminonitrile and CO2. This invention can overcome the above problem by incorporating a solution with the known concentration of BAPN into the dressing material (gauze, collagen sponge) with a known surface area. The dressing material may be soaked with a known volume of BAPN solution, frozen and freeze dried to complete dryness.

urethral stenosis = assay: Example 7: urethra-infection; format: in vivo, human; conditions: BAPN-F bonded silicone catheter; about six weeks
Source text: The old scar in the urethra is opened under direct surgical resection. Immediately afterward a silicone urethral bladder catheter is inserted. After one week, this catheter is exchanged for one with the lathyrogenic agent BAPN-F bonded onto its surface. The coated catheter is continuously maintained in place and changed ever week for about six weeks during the healing phase. During the healing phase new scar tissue is laid down. However, its strength is beneficially altered by the lathyrogen BAPN-F which inhibits the bonding of one protein scar fiber to the next protein scar fiber allowing the wound to be molded in the shape of the intraluminal stint (urinary bladder catheter).

[8] = tested on: full thickness burn of the hand; assay: Example 5: burn scar-hand; format: in vivo, human; conditions: jelly containing 5 mM/L BAPN-F; four to six weeks
Method: A patient with a well healed full thickness burn of the hand has severe scarring of the fingers and hand in a claw-like form. The old scars are surgically released to create full mobility of the joints. The hand is placed in a "dynamic splint." The splint contains rubber band fixation to a rigid frame allowing the patient to exercise their fingers through a full range of motion. During the healing phase and on a daily basis, a jelly containing 5 mM/L of the lathyrogenic agent BAPN-F is continuously applied to the surgically "released" areas. The patient continues to exercise and use the dynamic splint during the healing phase over the next four to six weeks. […] The dynamic splint is removed. Healing is complete and range of motion restored.

[9] = tested on: circumferential suture line scar of bladder and urethra; assay: Example 4: urethra-prostatic cancer; format: in vivo, human; conditions: silicone catheter coated with 5.0 mM BAPN-F; three weeks
Method: A patient with prostatic cancer detected with sonography and a candidate for total prostatectomy has the prostate removed and the cuff of the bladder sewn to the most proximal remaining portion of the urethra. This circumferential suture line often progresses to heavy scarring preventing complete emptying of the bladder. The scar is cut away under anesthesia and direct resectoscope vision and immediately stinted with a silicone catheter coated with 5.0 mM BAPN-F. The catheter remains in continuous direct contact with the new wound tissue during healing. The BAPN-F leaches from the surface of the catheter, thereby inhibiting hardening of the healing scar during the next three weeks. The catheter is changed on a weekly basis to renew the BAPN-F supply.

[10] = tested on: common bile duct stenosis; assay: Example 11: common bile duct stenosis; format: in vivo, human; conditions: BAPN-F coated silastic tube; six weeks
Source text: The scar is partially resected and after one week an original silastic stint is exchanged for an intraluminal silastic tube coated with BAPN-F with one arm of the tube protruding into the duodenum. The BAPN-F leaches off the silastic tube and is incorporated into the newly formed scar, which is soft because BAPN-F blocks cross-linking. The tube is continuously maintained in place and on a weekly basis the patient returns to the gastroenterology lab where, under direct manipulation, the tube is exchanged every week for six weeks. Once healing is complete the tube is removed and the new lumen of the common bile duct is preserved. The patient is no longer jaundiced and fluids from the liver can pass into the duodenum uninhibited.

[11] = rabbit, in vivo
Method: This example illustrates the efficacy of collagen- resorcinol-glutaraldehyde polymer as a BAPN-F delivery system. One hundred parts of medical grade purity collagen, prepared by a known procedure, is mixed with three hundred parts of water and heated until collagen dissolves to form a viscous solution. […] One milliliter of this mixture per kilogram of rabbit body weight was injected under the skin, after quick mixing of the appropriate volume of the mixture with 1/10 of its volume of 3 percent glutaraldehyde in a 5 ml plastic syringe. […] The rate of the release of the BAPN-F from the polymer was studied by direct measuring of the amount of BAPN-F in the blood, collected from the ear vein of the rabbit at time intervals shown in Table 1.
For comparison, the same amount of BAPN-F was injected under the skin of control rabbits as water solution.

Compound: N#CCCN [BAPN, Beta-aminopropionitrile]
- opening of the fallopian tube [1]: the opening of the fallopian tube is preserved and egg and sperm transport can now cross the previously blocked fallopian tube
- penetration of skin and other surrounding tissues (thickness) [2]: a few millimeters in thickness
- time of detection of the first decomposition product [3]: 6-8 weeks
- systemic tolerance (therapeutic vs. toxic concentrations) [4]: therapeutic and toxic concentrations are so close that they cannot be systemically tolerated by humans
- inhibition of crosslinking (collagen crosslinking): crosslinking can be inhibited

Compound: N#CCCN [BAPN-F, Beta-aminopropionitrile fumarate]
- opening after catheter removal [5]: a normal sized opening is present
- scarring and airway dynamics (tracheal injury): no further scarring takes place, the medication and stint is discontinued and the patient returns to normal airway dynamics
- ingestion of food during treatment (burns in the esophagus; esophageal burns): severe problems in the ingestion of food
- toxicity (burns in the esophagus; systemically introduced): serious toxicity problems
- range of motion at the elbow [6]: the patient resumes full range of motion at the elbow
- clinical effect on fibrotic adhesions [7]: evident clinical effect of a topically applied gauze-placed wet over the lesions, such as peritendinous, perineural adhesions with prevention or reduction of the incidence of fibrotic adhesions
- urination after stint removal (urethral stenosis): normal unobstructed urination can proceed
- range of hand motion [8]: full range of motion without further restriction of hand motion
- scarring of bladder-urethra suture line [9]: no new scarring takes place
- lumen of the common bile duct, jaundice [10]: the new lumen of the common bile duct is preserved. The patient is no longer jaundiced

Compound: CC(C)(S)[C@@H](N)C(=O)O [D-Penicillamine]
- opening after catheter removal [5]: a normal sized opening is present
- scarring and airway dynamics (tracheal injury): no further scarring takes place, the medication and stint is discontinued and the patient returns to normal airway dynamics
- range of motion at the elbow [6]: the patient resumes full range of motion at the elbow
- systemic tolerance (therapeutic vs. toxic concentrations) [4]: therapeutic and toxic concentrations are so close that they cannot be systemically tolerated by humans
- inhibition of crosslinking (collagen crosslinking): crosslinking can be inhibited

- Plasma Level (BAPN-F) ([11]; 120 min): 3.2
- Plasma Level (BAPN-F) ([11]; 240 min): 2.9
- Plasma Level (BAPN-F) ([11]; 360 min): 2.1
- Plasma Level (BAPN-F) ([11]; 600 min): 1.0
- Plasma Level (BAPN-F) ([11]; 960 min): 0.1
- Plasma Level (BAPN-F) ([11]; 2880 min): 0
- Plasma Level (BAPN-F) ([11]; 4320 min): 0
- Plasma Level (BAPN-F) ([11]; 5760 min): 0
- Plasma Level (BAPN-F) ([11]; 10080 min): 0
Compound: Water
- time to maximum in serum [11]: reaches a maximum in serum within two hours after injection
